Assay [1] deals with conditioned avoidance responding. In words: Conditioned avoidance, shelf-jump response. The class given is in vivo, rat (male CD, Charles River). As to conditions: Rattus norvegicus, ip; single dose 40 mg/kg. The text has this: (§1) The antipsychotic properties of the compounds of this invention were established by standard pharmacologically accepted procedures involving conditioned avoidance studies in which trained male CD rats (Charles River), 400-450 g. body weight are exposed to a fifteen second warning tone (conditioned stimulus) continued for an additional fifteen seconds accompanied by electric shock. The rat can avoid the electric shock by jumping to an exposed shelf (shelf-jump response). A response during the initial warning tone is considered an avoidance response, while a response during shock delivery is considered as escape response. The shelf-jump response test procedure follows that of Herman et al., Comm. in Psychopharm., 3, pp. 165-171 (1979). The compounds of this invention were tested at a single dose (40 mg./kg. i.p.) in this procedure and were rated relative to their inhibition of conditioned avoidance responding. A similar test procedure (Discrete Trial) in which a lever press was substituted for a shelf-jump was used to establish the oral (p.o.) activity of the test compounds. Orally active compounds were tested over a full dose range and the Avoidance Block activities reported as "AB50 's" (mg./kg.).

Assay [2] has the same test system. The experiment in a line: Conditioned avoidance, Discrete Trial (lever press). The class given is in vivo, rat (male CD, Charles River). To be noted: for Conditioned Avoidance, Discrete Trial AB50: p.o.; for ED50: Rattus norvegicus, po, read-out: Conditioned Avoidance, Discrete Trial AB50.
Description: as §1

The subject of assay [3] is apomorphine-induced stereotyped behavior and climbing. In words: Antagonism of apomorphine-induced stereotyped behavior and climbing. As to conditions: apomorphine 1 mg/kg s.c.; for ED50: Mus musculus, po; for Apomorphine Antagonism, Stereotypy ED50: p.o. The class given is in vivo, mouse (CF-1, Charles River). The method, then:
Readings are repeated every five minutes during a thirty minute test session. […] The ratio of the ED50 for stereotyped behavior of the ED50 for climbing is calculated.

In assay [4] the target is T1, D-2 dopamine receptor (Rattus norvegicus, UniProt P61169).
T1 construct: from tissue; host or cells: homogenized limbic brain tissue
T1 sequence (P61169 whole entry): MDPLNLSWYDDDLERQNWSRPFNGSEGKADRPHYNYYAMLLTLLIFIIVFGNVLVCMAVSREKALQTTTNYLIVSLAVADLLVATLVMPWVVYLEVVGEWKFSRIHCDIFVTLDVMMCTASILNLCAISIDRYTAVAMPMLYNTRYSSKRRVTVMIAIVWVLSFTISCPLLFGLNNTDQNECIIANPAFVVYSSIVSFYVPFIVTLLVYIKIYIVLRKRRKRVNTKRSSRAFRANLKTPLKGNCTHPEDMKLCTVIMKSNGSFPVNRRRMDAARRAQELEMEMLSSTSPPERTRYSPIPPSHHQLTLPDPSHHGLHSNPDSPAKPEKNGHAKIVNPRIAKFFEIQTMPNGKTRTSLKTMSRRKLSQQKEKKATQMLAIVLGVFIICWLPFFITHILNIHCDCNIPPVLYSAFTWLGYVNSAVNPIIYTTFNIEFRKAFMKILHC
The experiment in a line: [^3 H] Spiroperidol binding inhibition (D-2 dopamine receptor, homogenized limbic brain tissue). To be noted: 1 μM. The text has this:
The results of this testing with compounds representative of the invention whose production is exemplified, infra, are as follows: […]

In assay [5] the target is T2, 5-HT1A serotonin receptor (Rattus norvegicus, UniProt P19327).
T2 construct: from tissue
T2 sequence (P19327 1-422): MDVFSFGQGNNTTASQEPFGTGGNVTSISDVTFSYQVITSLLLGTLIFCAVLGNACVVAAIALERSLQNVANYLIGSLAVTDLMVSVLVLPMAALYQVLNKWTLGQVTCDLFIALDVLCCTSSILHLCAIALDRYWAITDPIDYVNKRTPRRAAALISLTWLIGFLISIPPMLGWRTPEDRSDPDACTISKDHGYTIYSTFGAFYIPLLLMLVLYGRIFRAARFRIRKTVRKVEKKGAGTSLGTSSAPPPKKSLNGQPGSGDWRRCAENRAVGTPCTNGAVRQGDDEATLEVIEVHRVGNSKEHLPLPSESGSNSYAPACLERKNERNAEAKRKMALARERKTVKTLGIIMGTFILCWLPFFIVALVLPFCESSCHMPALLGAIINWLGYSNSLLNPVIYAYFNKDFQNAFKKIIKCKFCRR
The experiment in a line: Inhibition of [^3 H] 8-OH DPAT binding.
Description: 8-OH DPAT (dipropylaminotetralin) from the 5-HT1A serotonin receptor by the procedure of Hall et al., J. Neurochem.

[6] abbreviates: read-out: Apomorphine Antagonism, Climbing ED50.
[7] abbreviates: read-out: Apomorphine Antagonism, Stereotypy ED50.

Molecules are shown by their SMILES. Like-named read-outs stand apart in the source and are kept apart here. Where only a bound is given, the exact number is not on record here.

On to `O=C1C2CCCC(C2)C(=O)N1CCCCN1CCN(c2cnccn2)CC1` [Example 16, 3-[4-[4-(2-Pyrazinyl)-1-piperazinyl]butyl]-3-azabicyclo[3.3.1]nonane-2,4-dione], for which the inhibition in vivo (commonly the drop in the measured response relative to a control, in per cent) at 40 mg/kg in assay [1] is about 80%. Further, the “Conditioned Avoidance, Discrete Trial AB50” value (“Conditioned Avoidance” below) in assay [2] was “inactive”. In addition, the ED50 in assay [3] (setting [6]) stood at 9.17 mg/kg; in assay [3] (setting [7]), 54.1 mg/kg. In addition, the inhibition (in general, how much of the control response was suppressed) at 1 µM in assay [4] worked out at 12%. The Ki (usually the equilibrium dissociation constant of an inhibitor or competing ligand from its target) in assay [5] is 0.129 µM.

Compound `COc1ccccc1N1CCN(CCCCN2C(=O)C3CCC(C3)C2=O)CC1` [Example 17, 3-[4-[4-(2-Methoxyphenyl)-1-piperazinyl]butyl]-3-azabicyclo[3.2.1]octane-2,4-dione] yielded an inhibition in vivo at 40 mg/kg in assay [1] of about 80%. Also, the ED50 in assay [2] stood at 29.4 mg/kg; in assay [3] (setting [6]), 0.83 mg/kg; in assay [3] (setting [7]), 5.83 mg/kg. Further, the inhibition at 1 µM in assay [4] was determined as 0%. In addition, the Ki in assay [5] came to 0.005 µM.

Compound `CC1(C)C2CCC1C(=O)N(CCCCN1CCN(c3cncc(Cl)n3)CC1)C2=O` [Example 18, 3-[4-[4-(6-Chloro-2-pyrazinyl)-1-piperazinyl]butyl]-8,8-dimethyl-3-azabicyclo[3.2.1]octane-2,4-dione] registered an inhibition in vivo at 40 mg/kg in assay [1] of over 20%. The “Conditioned Avoidance” value in assay [2] is “inactive”. The ED50 in assay [3] (setting [6]) was found to be 43 mg/kg. The “Apomorphine Antagonism, Stereotypy ED50” value in assay [3] is “inactive”. Besides, the inhibition at 1 µM in assay [4] is 21%; in assay [5] it was 76%.

Turning to `O=C1C2CCCC(O2)C(=O)N1CCCCN1CCN(c2cccc(C(F)(F)F)c2)CC1` [Example 19, 3-[4-[4-[3-(Trifluoromethyl)phenyl]-1-piperazinyl]butyl]-9-oxa-3-azabicyclo[3.3.1]nonane-2,4-dione], the inhibition in vivo at 40 mg/kg in assay [1] was about 80%. Moreover, the ED50 was 27 mg/kg in assay [2], 9.06 mg/kg in assay [3] (setting [6]) and 31 mg/kg in assay [3] (setting [7]). Also, testing at 1 µM in assay [4] gave an inhibition of 97%. Moreover, the affinity in assay [5] corresponds to a Ki of 0.015 µM.

Regarding `CC1(C)C2CCC1C(=O)N(CCCCN1CCN(c3ncccn3)CC1)C2=O` [Example 20, 3-[4-[4-(2-Pyrimidinyl)-1-piperazinyl]butyl]-8,8-dimethyl-3-azabicyclo[3.2.1]octane-2,4-dione], the inhibition in vivo at 40 mg/kg in assay [1] was over 20%. Further, the “Conditioned Avoidance” value in assay [2] is “inactive”. Further, in assay [3] (setting [6]), the ED50 amounted to 0.2 mg/kg. Also, the “Apomorphine Antagonism, Stereotypy ED50” value in assay [3] was “inactive”. In assay [4], 1 µM produced 53% inhibition. The compound further yielded a Ki in assay [5] of 0.016 µM.

Take `O=C1C2CC=CCC(C2)C(=O)N1CCCCN1CCN(c2ncccn2)CC1` [Example 21, 8-[4-[4-(2-Pyrimidinyl)-1-piperazinyl]butyl]-8-azabicyclo[4.3.1]dec-3-ene-7,9-dione]: the inhibition in vivo at 40 mg/kg in assay [1] is over 20%. Moreover, in assay [2], the “Conditioned Avoidance” value is “inactive”. In addition, in assay [3] (setting [6]), the ED50 came out at 11.1 mg/kg. In assay [3], the “Apomorphine Antagonism, Stereotypy ED50” value is “inactive”. In assay [4], this compound gave an inhibition at 1 µM of 63%. In assay [5], the Ki is 0.015 µM.

`O=C1C2CCC(C2)C(=O)N1CCCN1CCN(c2cccc(C(F)(F)F)c2)CC1` [Example 22, 3-[3-[4-[3-(Trifluoromethyl)phenyl]-1-piperazinyl]propyl]-3-azabicyclo[3.2.1]octane-2,4-dione]: the inhibition in vivo at 40 mg/kg in assay [1] is about 80%. Moreover, the “Conditioned Avoidance” value in assay [2] is “weak”. In addition, the results for the ED50 in assay [3] (setting [6]) and in assay [3] (setting [7]) were 29.5 mg/kg and 43.3 mg/kg, respectively. The inhibition at 1 µM in assay [4] was found to be 38%. The compound further showed a Ki in assay [5] of 0.004 µM.

The values are drawn from patent US4748240A, “Psychotropic bicyclic imides” (American Home Products Corporation, priority 1987, dated 1988).
